Legend:
[1] = tested on: HL-60(TB); details: HL-60(TB) (Leukemia)
[2] = tested on: A549/ATCC; details: A549/ATCC (Non-Small Cell Lung Cancer)
[3] = tested on: HOP-92; details: HOP-92 (Non-Small Cell Lung Cancer)
[4] = tested on: NCI-H226; details: NCI-H226 (Non-Small Cell Lung Cancer)
[5] = tested on: NCI-H460; details: NCI-H460 (Non-Small Cell Lung Cancer)
[6] = tested on: COLO 205; details: COLO 205 (Colon Cancer)
[7] = tested on: HCC-2998; details: HCC-2998 (Colon Cancer)
[8] = tested on: KM12; details: KM12 (Colon Cancer)
[9] = tested on: SW-620; details: SW-620 (Colon Cancer)
[10] = tested on: SF-539; details: SF-539 (CNS Cancer)
[11] = tested on: U251; details: U251 (CNS Cancer)
[12] = tested on: LOX I MVI; details: LOX I MVI (Melanoma)
[13] = tested on: MALME-3M; details: MALME-3M (Melanoma)
[14] = tested on: SK-MEL-28; details: SK-MEL-28 (Melanoma)
[15] = tested on: UACC-257; details: UACC-257 (Melanoma)
[16] = tested on: IGROV1; details: IGROV1 (Ovarian Cancer)
[17] = tested on: OVCAR-5; details: OVCAR-5 (Ovarian Cancer)
[18] = tested on: OVCAR-8; details: OVCAR-8 (Ovarian Cancer)
[19] = tested on: SK-OV-3; details: SK-OV-3 (Ovarian Cancer)
[20] = tested on: A498; details: A498 (Renal Cancer)
[21] = tested on: ACHN; details: ACHN (Renal Cancer)
[22] = tested on: SN12C; details: SN12C (Renal Cancer)
[23] = tested on: UO-31; details: UO-31 (Renal Cancer)
[24] = tested on: DU-145; details: DU-145 (Prostate Cancer)
[25] = tested on: MCF7; details: MCF7 (Breast Cancer)
[26] = tested on: NCI/ADR-RES; details: NCI/ADR-RES (Breast Cancer)
[27] = tested on: HS 578T; details: HS 578T (Breast Cancer)

## COc1cc(Nc2ncc(F)c(Nc3ccc4c(n3)NC(=O)C(C)(C)O4)n2)cc(OC)c1OC.O=S(=O)(O)c1ccccc1 [Compound 1 (besylate salt), N4-(2,2-Dimethyl-3-oxo-4H-5-pyrid[1,4]oxazin-6-yl)-5-fluoro-N2-(3,4,5-trimethoxyphenyl)-2,4-pyrimidinediamine Benzenesulfonic Acid Salt]
[1]
  GI50: > 100 µM
  TGI: >1.00E−4
[1]; read-out: LC50
  CC50: > 100 µM
[2]
  TGI: >1.00E−4
[2]; read-out: LC50
  CC50: > 100 µM
[3]
  GI50: 0.41 µM
[3]; read-out: LC50
  CC50: > 100 µM
[4]
  GI50: 0.497 µM
[4]; read-out: LC50
  CC50: > 100 µM
[5]
  TGI: >1.00E−4
[5]; read-out: LC50
  CC50: > 100 µM
[6]
  GI50: 7.26 µM
  TGI: >1.00E−4
[6]; read-out: LC50
  CC50: > 100 µM
[7]
  GI50: > 100 µM
  TGI: >1.00E−4
[7]; read-out: LC50
  CC50: > 100 µM
[8]
  GI50: 0.355 µM
  TGI: >1.00E−4
[8]; read-out: LC50
  CC50: > 100 µM
[9]
  TGI: >1.00E−4
[9]; read-out: LC50
  CC50: > 100 µM
[10]
  GI50: 0.605 µM
[10]; read-out: LC50
  CC50: > 100 µM
[11]
  TGI: >1.00E−4
[11]; read-out: LC50
  CC50: > 100 µM
[12]
  GI50: 1.13 µM
  TGI: 1.13E−6
[12]; read-out: LC50
  CC50: > 100 µM
[13]
  GI50: > 100 µM
  TGI: >1.00E−4
[13]; read-out: LC50
  CC50: > 100 µM
[14]
  GI50: > 100 µM
  TGI: >1.00E−4
[14]; read-out: LC50
  CC50: > 100 µM
[15]
  GI50: > 100 µM
  TGI: >1.00E−4
[15]; read-out: LC50
  CC50: > 100 µM
[16]
  GI50: 0.796 µM
  TGI: >1.00E−4
[16]; read-out: LC50
  CC50: > 100 µM
[17]
  GI50: > 100 µM
  TGI: >1.00E−4
[17]; read-out: LC50
  CC50: > 100 µM
[18]
  GI50: > 100 µM
  TGI: >1.00E−4
[18]; read-out: LC50
  CC50: > 100 µM
[19]
  GI50: 0.429 µM
  TGI: >1.00E−4
[19]; read-out: LC50
  CC50: > 100 µM
[20]
  GI50: 0.36 µM
[20]; read-out: LC50
  CC50: > 100 µM
[21]
  GI50: 1.24 µM
  TGI: >1.00E−4
[21]; read-out: LC50
  CC50: > 100 µM
[22]
  GI50: 0.698 µM
  TGI: >1.00E−4
[22]; read-out: LC50
  CC50: > 100 µM
[23]
  GI50: 0.596 µM
  TGI: >1.00E−4
[23]; read-out: LC50
  CC50: > 100 µM
[24]
  TGI: >1.00E−4
[24]; read-out: LC50
  CC50: > 100 µM
[25]
  GI50: 2.72 µM
  TGI: >1.00E−4
[25]; read-out: LC50
  CC50: > 100 µM
[26]
  GI50: > 100 µM
  TGI: >1.00E−4
[26]; read-out: LC50
  CC50: > 100 µM
[27]
  GI50: 1.19 µM
  TGI: >1.00E−4
[27]; read-out: LC50
  CC50: > 100 µM
